# Data reported in patent publication US20260193264A1, “BENZOYPARAZINE PYRAZINES AND THEIR USES” (FOGHORN THERAPEUTICS INC., priority 2022, published 2026).
# What was measured:
# [1] = biological target: T1, HiBiT-BRM fusion protein in stable HeLa cell line (Homo sapiens, UniProt P51531); test: HiBiT-BRM cell-based degradation assay (Nano-Glo HiBiT Lytic Detection, 24 h); set-up: DC50: scale not given here; conditions: HeLa HiBiT-BRM cells; for DC50: read-out: BRM HiBit Degradation IC50; for BRM HiBit Degradation Maximum (%): top dose 30 μM
# T1 construct: expressed in transfected cells
# T1 sequence (P51531 whole entry, the tested form may be a part): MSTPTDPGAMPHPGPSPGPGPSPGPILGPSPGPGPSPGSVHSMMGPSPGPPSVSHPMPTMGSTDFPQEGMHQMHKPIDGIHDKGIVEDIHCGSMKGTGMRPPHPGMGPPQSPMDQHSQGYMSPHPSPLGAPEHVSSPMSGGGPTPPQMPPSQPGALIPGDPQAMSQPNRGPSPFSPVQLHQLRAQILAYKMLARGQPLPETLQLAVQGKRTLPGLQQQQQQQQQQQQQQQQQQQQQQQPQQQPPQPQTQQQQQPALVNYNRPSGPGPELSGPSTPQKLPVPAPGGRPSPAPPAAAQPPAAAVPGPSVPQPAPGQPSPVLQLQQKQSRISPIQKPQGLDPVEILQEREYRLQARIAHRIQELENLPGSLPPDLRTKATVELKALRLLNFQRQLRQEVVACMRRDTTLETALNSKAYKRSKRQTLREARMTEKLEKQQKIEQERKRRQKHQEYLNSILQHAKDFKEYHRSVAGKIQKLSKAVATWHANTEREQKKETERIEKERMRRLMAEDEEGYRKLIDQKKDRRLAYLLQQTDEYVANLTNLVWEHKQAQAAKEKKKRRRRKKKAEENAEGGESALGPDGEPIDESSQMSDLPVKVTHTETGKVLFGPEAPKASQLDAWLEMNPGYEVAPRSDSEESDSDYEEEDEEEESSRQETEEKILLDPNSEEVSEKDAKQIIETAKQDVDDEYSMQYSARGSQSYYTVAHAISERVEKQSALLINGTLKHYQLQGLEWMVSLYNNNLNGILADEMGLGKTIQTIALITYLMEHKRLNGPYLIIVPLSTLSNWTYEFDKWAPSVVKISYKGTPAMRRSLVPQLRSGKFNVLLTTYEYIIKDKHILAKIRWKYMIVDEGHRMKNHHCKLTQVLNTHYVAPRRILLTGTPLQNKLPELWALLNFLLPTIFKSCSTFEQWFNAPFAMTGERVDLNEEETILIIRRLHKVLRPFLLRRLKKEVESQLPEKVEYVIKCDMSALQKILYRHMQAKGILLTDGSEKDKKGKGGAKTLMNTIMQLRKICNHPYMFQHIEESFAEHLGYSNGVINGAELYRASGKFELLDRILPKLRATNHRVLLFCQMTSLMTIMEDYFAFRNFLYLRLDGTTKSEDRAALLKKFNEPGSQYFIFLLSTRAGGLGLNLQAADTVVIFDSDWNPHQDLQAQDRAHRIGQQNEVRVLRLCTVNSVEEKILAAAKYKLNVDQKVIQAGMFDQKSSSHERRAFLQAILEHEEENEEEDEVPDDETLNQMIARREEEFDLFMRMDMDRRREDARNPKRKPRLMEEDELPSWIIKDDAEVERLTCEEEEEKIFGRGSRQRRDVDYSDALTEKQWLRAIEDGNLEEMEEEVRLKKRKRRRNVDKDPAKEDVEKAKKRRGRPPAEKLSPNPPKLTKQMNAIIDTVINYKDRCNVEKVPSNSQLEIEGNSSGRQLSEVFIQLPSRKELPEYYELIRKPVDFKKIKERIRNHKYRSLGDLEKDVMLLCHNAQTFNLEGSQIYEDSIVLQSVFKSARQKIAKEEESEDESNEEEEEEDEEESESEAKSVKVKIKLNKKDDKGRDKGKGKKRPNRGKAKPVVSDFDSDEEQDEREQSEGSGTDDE
# In short: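 HiBiT-tagged BRM levels in a stable HeLa line are measured after one day of compound treatment (up to 30 μM final, duplicate 10-point curves) by adding LgBiT lytic reagent and reading bioluminescence; values are expressed relative to vehicle and a 2 μM degrader control.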
# [2] = biological target: T2, HiBit-BRG1 fusion protein in stable HeLa cell line expressing HiBit-BRG1 and LgBit (Homo sapiens, UniProt P51532); test: HiBiT-BRG1 cell-based degradation assay (Nano-Glo HiBiT, 24 h); conditions: HeLa HiBit-BRG1/LgBit cells; for DC50: read-out: BRMG1 HiBit Degradation IC50; for Dmax: top dose 30 μM, read-out: BRG1 HiBit Degradation Maximum (%)
# T2 construct: expressed in transfected cells
# T2 sequence (P51532 whole entry, the tested form may be a part): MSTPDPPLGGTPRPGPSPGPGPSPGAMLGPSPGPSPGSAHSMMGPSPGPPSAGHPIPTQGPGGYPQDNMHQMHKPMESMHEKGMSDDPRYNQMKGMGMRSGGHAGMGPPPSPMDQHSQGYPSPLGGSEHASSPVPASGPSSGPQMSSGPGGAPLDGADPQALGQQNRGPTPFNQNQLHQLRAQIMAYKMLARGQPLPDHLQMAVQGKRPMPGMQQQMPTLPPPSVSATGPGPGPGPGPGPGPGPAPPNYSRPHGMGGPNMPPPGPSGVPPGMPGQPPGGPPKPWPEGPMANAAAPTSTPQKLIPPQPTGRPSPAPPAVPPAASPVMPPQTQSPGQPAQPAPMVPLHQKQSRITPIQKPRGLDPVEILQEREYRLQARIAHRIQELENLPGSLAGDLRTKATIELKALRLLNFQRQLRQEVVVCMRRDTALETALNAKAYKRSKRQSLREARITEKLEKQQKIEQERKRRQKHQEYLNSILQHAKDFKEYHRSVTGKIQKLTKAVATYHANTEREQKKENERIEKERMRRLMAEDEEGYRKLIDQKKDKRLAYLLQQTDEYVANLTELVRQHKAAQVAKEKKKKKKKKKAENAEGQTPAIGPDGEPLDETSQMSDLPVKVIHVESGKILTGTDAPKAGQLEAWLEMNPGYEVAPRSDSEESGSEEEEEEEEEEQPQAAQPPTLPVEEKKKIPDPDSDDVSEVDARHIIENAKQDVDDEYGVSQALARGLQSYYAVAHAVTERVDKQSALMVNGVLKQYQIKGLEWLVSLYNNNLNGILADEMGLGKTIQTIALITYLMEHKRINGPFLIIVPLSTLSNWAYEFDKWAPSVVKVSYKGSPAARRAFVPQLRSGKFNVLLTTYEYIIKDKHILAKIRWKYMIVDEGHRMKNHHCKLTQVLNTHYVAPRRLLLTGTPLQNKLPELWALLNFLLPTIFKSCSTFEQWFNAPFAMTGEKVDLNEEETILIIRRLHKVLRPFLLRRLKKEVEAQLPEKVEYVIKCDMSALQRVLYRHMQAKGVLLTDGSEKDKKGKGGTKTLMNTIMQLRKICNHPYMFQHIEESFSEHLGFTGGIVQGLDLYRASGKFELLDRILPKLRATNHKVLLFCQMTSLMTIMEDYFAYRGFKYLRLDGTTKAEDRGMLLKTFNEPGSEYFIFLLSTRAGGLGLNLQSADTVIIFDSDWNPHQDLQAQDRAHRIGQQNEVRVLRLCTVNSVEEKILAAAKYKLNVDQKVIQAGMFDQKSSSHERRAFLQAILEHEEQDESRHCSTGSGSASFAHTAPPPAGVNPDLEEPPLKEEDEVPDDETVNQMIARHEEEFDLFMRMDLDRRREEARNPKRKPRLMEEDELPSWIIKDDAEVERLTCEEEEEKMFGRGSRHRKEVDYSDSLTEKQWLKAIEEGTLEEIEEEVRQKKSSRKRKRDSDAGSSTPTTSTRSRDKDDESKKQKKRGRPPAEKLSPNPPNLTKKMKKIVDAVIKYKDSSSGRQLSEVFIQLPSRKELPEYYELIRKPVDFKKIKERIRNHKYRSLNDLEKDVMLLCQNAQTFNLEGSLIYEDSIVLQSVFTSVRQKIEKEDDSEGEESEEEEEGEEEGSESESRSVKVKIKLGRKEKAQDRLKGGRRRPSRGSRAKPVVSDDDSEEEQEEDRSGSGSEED
# In short: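 Degradation calculated from NanoBiT luminescence relative to DMSO-treated cells (high) and cells given 2 μM known BRM/BRG1 degrader (low). HeLa cells stably expressing HiBiT-BRG1 plus LgBiT were exposed to compound for 24 h before lytic HiBiT detection.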
DC50 [1],DC50 [2],Dmax [2],Compound,BRM HiBit Degradation Maximum (%) [1]
< 10 nM,> 10 nM,> 75%,"COc1cc2cc(-c3ccccc3O)nnc2cc1CN1CC[C@@H](N2CCN(c3cc([C@H](C(=O)N4C[C@H](O)C[C@H]4C(=O)N[C@@H](C)c4ccc(-c5scnc5C)cc4)C(C)C)on3)CC2)C(F)(F)C1 [Compound 218, (2S,4R)-1-[(2R)-2-(3-{4-[(4R)-3,3-difluoro-1-{[3-(2-hydroxyphenyl)-6-methoxycinnolin-7-yl]methyl}piperidin-4-yl]piperazin-1-yl}-1,2-oxazol-5-yl)-3-methylbutanoyl]-4-hydroxy-N-[(1S)-1-[4-(4-methyl-1,3-thiazol-5-yl)phenyl]ethyl]pyrrolidine-2-carboxamide]",A (“A” indicates maximum degradation ≥75%)
< 10 nM,> 10 nM,> 75%,"COc1cc2cc(-c3ccccc3O)nnc2cc1CN1CC[C@H](N2CCN(c3cc([C@H](C(=O)N4C[C@H](O)C[C@H]4C(=O)N[C@@H](C)c4ccc(-c5scnc5C)cc4)C(C)C)on3)CC2)C(F)(F)C1 [Compound 219, (2S,4R)-1-((R)-2-(3-(4-((S)-3,3-difluoro-1-((3-(2-hydroxyphenyl)-6-methoxycinnolin-7-yl)methyl)piperidin-4-yl)piperazin-1-yl)isoxazol-5-yl)-3-methylbutanoyl)-4-hydroxy-N-((S)-1-(4-(4-methylthiazol-5-yl)phenyl)ethyl)pyrrolidine-2-carboxamide]",A (“A” indicates maximum degradation ≥75%)
< 10 nM,> 10 nM,> 75%,"Cc1ncsc1-c1ccc([C@H](C)NC(=O)[C@@H]2C[C@@H](O)CN2C(=O)[C@@H](c2cc(N3CC4(CC(c5cc6nnc(-c7ccccc7O)cc6cc5Cl)C4)C3)no2)C(C)C)cc1 [Compound 220, (2S,4R)-1-((R)-2-(3-(6-(6-chloro-3-(2-hydroxyphenyl)cinnolin-7-yl)-2-azaspiro[3.3]heptan-2-yl)isoxazol-5-yl)-3-methylbutanoyl)-4-hydroxy-N-((S)-1-(4-(4-methylthiazol-5-yl)phenyl)ethyl)pyrrolidine-2-carboxamide]",A (“A” indicates maximum degradation ≥75%)
< 10 nM,,< 50%,"Cc1ncsc1-c1ccc([C@H](C)NC(=O)[C@@H]2C[C@@H](O)CN2C(=O)[C@@H](c2cc(N3CC4(CC(c5cc6nnc(-c7ccccc7O)cc6cc5C#N)C4)C3)no2)C(C)C)cc1 [Compound 222, (2S,4R)-1-((R)-2-(3-(6-(6-cyano-3-(2-hydroxyphenyl)cinnolin-7-yl)-2-azaspiro[3.3]heptan-2-yl)isoxazol-5-yl)-3-methylbutanoyl)-4-hydroxy-N-((S)-1-(4-(4-methylthiazol-5-yl)phenyl)ethyl)pyrrolidine-2-carboxamide]",A (“A” indicates maximum degradation ≥75%)
< 10 nM,,> 50%,"C#Cc1ccc(CNC(=O)[C@@H]2C[C@@H](O)CN2C(=O)[C@H](C(C)C)n2cc(N3CC4(CN(c5ccc6cc(-c7ccccc7O)nnc6c5)C4)C3)nn2)c(Cl)c1 [Compound 223, (2S,4R)—N-[(2-chloro-4-ethynylphenyl)methyl]-4-hydroxy-1-[(2S)-2-(4-{6-[3-(2-hydroxyphenyl)cinnolin-7-yl]-2,6-diazaspiro[3.3]heptan-2-yl}-1,2,3-triazol-1-yl)-3-methylbutanoyl]pyrrolidine-2-carboxamide]",A (“A” indicates maximum degradation ≥75%)
< 10 nM,> 10 nM,> 75%,"Cc1ncsc1-c1ccc([C@H](C)NC(=O)[C@H]2C[C@H](O)CN2C(=O)C(c2cc(N3C[C@@H]4C[C@H]3CN4c3ccc4cc(-c5ccccc5O)nnc4c3)no2)C(C)C)cc1 (stereo partly drawn) [Compound 224, (2R,4S)-4-hydroxy-1-(2-(3-((1S,4S)-5-(3-(2-hydroxyphenyl)cinnolin-7-yl)-2,5-diazabicyclo[2.2.1]heptan-2-yl)isoxazol-5-yl)-3-methylbutanoyl)-N-((S)-1-(4-(4-methylthiazol-5-yl)phenyl)ethyl)pyrrolidine-2-carboxamide]",A (“A” indicates maximum degradation ≥75%)
< 10 nM,> 10 nM,> 75%,"Cc1ncsc1-c1ccc([C@H](C)NC(=O)[C@@H]2C[C@@H](O)CN2C(=O)C(c2cc(N3CCC(C4CN(c5ccc6cc(-c7ccccc7O)nnc6c5)C4)CC3)no2)C(C)C)cc1 (stereo partly drawn) [Compound 225, (2S,4R)-4-hydroxy-1-(2-(3-(4-(1-(3-(2-hydroxyphenyl)cinnolin-7-yl)azetidin-3-yl)piperidin-1-yl)isoxazol-5-yl)-3-methylbutanoyl)-N-((S)-1-(4-(4-methylthiazol-5-yl)phenyl)ethyl)pyrrolidine-2-carboxamide]",A (“A” indicates maximum degradation ≥75%)
> 10 nM,,< 50%,"Cc1ncsc1-c1ccc([C@H](C)NC(=O)[C@@H]2C[C@@H](O)CN2C(=O)C(c2cc(N3C[C@@H]4CN(c5ccc6cc(-c7ccccc7O)nnc6c5)C[C@H]4C3)no2)C(C)C)cc1 (stereo partly drawn) [Compound 226, (2S,4R)-4-hydroxy-1-(2-(3-((3aS,6aS)-5-(3-(2-hydroxyphenyl)cinnolin-7-yl)hexahydropyrrolo[3,4-c]pyrrol-2(1H)-yl)isoxazol-5-yl)-3-methylbutanoyl)-N-((S)-1-(4-(4-methylthiazol-5-yl)phenyl)ethyl)pyrrolidine-2-carboxamide]",A (“A” indicates maximum degradation ≥75%)
> 100 nM,> 100 nM,> 50%,"CC(C)[C@@H](C(=O)N1C[C@H](O)C[C@H]1C(=O)N[C@@H](C)c1ccc(F)cc1)c1cc(N2CC3(CC(c4cc5nnc(-c6ccccc6O)cc5cc4C#N)C3)C2)no1 [Compound 227, (2S,4R)-1-((R)-2-(3-(6-(6-cyano-3-(2-hydroxyphenyl)cinnolin-7-yl)-2-azaspiro[3.3]heptan-2-yl)isoxazol-5-yl)-3-methylbutanoyl)-N-((S)-1-(4-fluorophenyl)ethyl)-4-hydroxypyrrolidine-2-carboxamide]",A (“A” indicates maximum degradation ≥75%)
< 10 nM,< 10 nM,> 75%,"Cc1ncsc1-c1ccc([C@H](C)NC(=O)[C@@H]2C[C@@H](O)CN2C(=O)[C@@H](c2cc(N3CC4=C(CN(c5ccc6cc(-c7ccccc7O)nnc6c5)C4)C3)no2)C(C)C)cc1 [Compound 228, (2S,4R)-4-hydroxy-1-((R)-2-(3-(5-(3-(2-hydroxyphenyl)cinnolin-7-yl)-3,4,5,6-tetrahydropyrrolo[3,4-c]pyrrol-2(1H)-yl)isoxazol-5-yl)-3-methylbutanoyl)-N-((S)-1-(4-(4-methylthiazol-5-yl)phenyl)ethyl)pyrrolidine-2-carboxamide]",A (“A” indicates maximum degradation ≥75%)
< 10 nM,< 10 nM,> 75%,"Cc1ncsc1-c1ccc([C@H](C)NC(=O)[C@@H]2C[C@@H](O)CN2C(=O)[C@@H](c2cc(N3CC4=C(CN(c5ccc6nnc(-c7ccccc7O)cc6c5)C4)C3)no2)C(C)C)cc1 [Compound 229, (2S,4R)-4-hydroxy-1-((R)-2-(3-(5-(3-(2-hydroxyphenyl)cinnolin-6-yl)-3,4,5,6-tetrahydropyrrolo[3,4-c]pyrrol-2(1H)-yl)isoxazol-5-yl)-3-methylbutanoyl)-N-((S)-1-(4-(4-methylthiazol-5-yl)phenyl)ethyl)pyrrolidine-2-carboxamide]",A (“A” indicates maximum degradation ≥75%)
< 10 nM,> 10 nM,> 75%,"Cc1ncsc1-c1ccc([C@H](C)NC(=O)[C@@H]2C[C@@H](O)CN2C(=O)[C@H](C(C)C)n2cc(C3CC4(CC(c5ccc6nnc(-c7ccccc7O)cc6c5)C4)C3)nn2)cc1 (stereo partly drawn) [Compound 230, (2S,4R)-4-hydroxy-1-((S)-2-(4-(6-(3-(2-hydroxyphenyl)cinnolin-6-yl)spiro[3.3]heptan-2-yl)-1H-1,2,3-triazol-1-yl)-3-methylbutanoyl)-N-((S)-1-(4-(4-methylthiazol-5-yl)phenyl)ethyl)pyrrolidine-2-carboxamide]",A (“A” indicates maximum degradation ≥75%)
< 10 nM,< 10 nM,> 75%,"Cc1ncsc1-c1ccc([C@H](C)NC(=O)[C@@H]2C[C@@H](O)CN2C(=O)[C@@H](c2cc(-c3cnc(N4CC5(CN(c6ccc7cc(-c8ccccc8O)nnc7c6)C5)C4)nc3)no2)C(C)C)cc1 [Compound 231, (2S,4R)-4-hydroxy-1-((R)-2-(3-(2-(6-(3-(2-hydroxyphenyl)cinnolin-7-yl)-2,6-diazaspiro[3.3]heptan-2-yl)pyrimidin-5-yl)isoxazol-5-yl)-3-methylbutanoyl)-N-((S)-1-(4-(4-methylthiazol-5-yl)phenyl)ethyl)pyrrolidine-2-carboxamide]",A (“A” indicates maximum degradation ≥75%)
> 10 nM,,< 50%,"Cc1ncsc1-c1ccc([C@H](C)NC(=O)[C@@H]2C[C@@H](O)CN2C(=O)[C@@H](c2cc(N3CC4(CN(Cc5ccc6cc(-c7ccccc7O)nnc6c5)C4)C3)no2)C(C)C)cc1 [Compound 232, (2S,4R)-4-hydroxy-1-((R)-2-(3-(6-((3-(2-hydroxyphenyl)cinnolin-7-yl)methyl)-2,6-diazaspiro[3.3]heptan-2-yl)isoxazol-5-yl)-3-methylbutanoyl)-N-((S)-1-(4-(4-methylthiazol-5-yl)phenyl)ethyl)pyrrolidine-2-carboxamide]",A (“A” indicates maximum degradation ≥75%)
